Measured values published in US5432164A, “C2,N^6 -disubstituted adenosine derivatives” (Novo Nordisk A/S, priority 1991, dated 1995).
Like-named read-outs stand apart in the source and are kept apart here.

How the values were obtained:
A1 receptor = conditions: literature, in words; cited from earlier work
mice = test: DMCM induced seizures in mice, i.p. 30 min (protection against clonic convulsions); format: in vivo, male NMRI mice; conditions: Mus musculus, ip, 0.5 h, read-out: DMCM-ind. seizures (ED50, mg/kg)
Description: DMCM INDUCED SEIZURES IN MICE, I.P.30 min.
DMCM, 15 mg/kg, i.p., clonic convulsions
DMCM is an inverse agonist at the benzodiazepine receptor, presumably producing seizures by decreasing the potency of inhibition of the GABA receptor/benzodiazepine receptor/chloride ionophore complex (1).
15 mg/kg of DMCM dissolved in 0.02N HCl (1 mg/ml) is administered i.p. in a volume of 300 μl to male NMRI mice weighing 20±2 g. This induces two different responses: a) some animals manifest a brief loss of righting reflexes or take up an upright position in which they have a mild short clonus of the upper extremities, b) other animals manifest intense clonic and tonic convulsions of all extremities often followed by death. DMCM is administered 30 min. after an intraperitoneal injection of a test compound. The latency time for the presence of intense clonic and tonic convulsions and death is noted until 15 min. after administration of DMCM. At least 5 doses of each test compound are tested with 8 mice per dose.
This method is described in more detail in Eur. J. Pharmacol. 94, 117-124, 1983.

adenosine A2 receptor = target: T1, adenosine A2 receptor (Rattus norvegicus, UniProt P30543); test: In vitro binding to adenosine A2 receptor, radioligand [3H]-CGS 21680
T1 construct: from tissue
T1 sequence (P30543 whole entry): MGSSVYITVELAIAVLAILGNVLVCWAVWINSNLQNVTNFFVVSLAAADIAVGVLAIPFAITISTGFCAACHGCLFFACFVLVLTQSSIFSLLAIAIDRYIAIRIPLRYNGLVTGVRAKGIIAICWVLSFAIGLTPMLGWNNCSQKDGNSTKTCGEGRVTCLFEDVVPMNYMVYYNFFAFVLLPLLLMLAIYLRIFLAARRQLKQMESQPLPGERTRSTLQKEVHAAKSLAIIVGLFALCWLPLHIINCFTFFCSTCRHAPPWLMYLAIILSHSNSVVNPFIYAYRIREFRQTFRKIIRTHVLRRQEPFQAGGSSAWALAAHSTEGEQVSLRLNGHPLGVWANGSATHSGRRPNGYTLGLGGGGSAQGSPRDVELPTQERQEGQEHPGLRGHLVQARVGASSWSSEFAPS
Source text: (§1) Evaluation of in vitro binding to adenosine A1 and A2 receptors.

adenosine A1 receptor = target: T2, adenosine A1 receptor (Rattus norvegicus, UniProt P25099); test: In vitro binding to adenosine A1 receptor, radioligand [3H]-L-PIA; conditions: for Ki: [3H]-L-PIA radioligand; for Ratio A2/A1: ratio of Ki A2/A1
T2 construct: from tissue
T2 sequence (P25099 1-326): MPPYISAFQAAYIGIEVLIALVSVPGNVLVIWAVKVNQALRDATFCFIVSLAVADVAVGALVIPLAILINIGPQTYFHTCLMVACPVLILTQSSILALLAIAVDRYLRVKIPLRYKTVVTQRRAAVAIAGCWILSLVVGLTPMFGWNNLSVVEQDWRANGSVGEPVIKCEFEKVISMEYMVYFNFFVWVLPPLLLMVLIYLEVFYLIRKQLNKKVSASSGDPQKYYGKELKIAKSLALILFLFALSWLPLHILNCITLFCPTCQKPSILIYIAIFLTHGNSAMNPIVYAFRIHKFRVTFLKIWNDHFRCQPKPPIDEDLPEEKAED
Source text: as §1

[1] = mice, test compound i.p. 30 min before DMCM 15 mg/kg i.p., dose protecting 50% against clonic convulsions
[2] = [3H]-CGS 21680 radioligand, read-out: A2 Receptor Binding (Ki)

| Ki (adenosine A2 receptor; [2]) | Ki (adenosine A1 receptor) | Ratio A2/A1 (adenosine A1 receptor) | SMILES | selectivity for the A1 receptor over the A2 receptor (A1 receptor) | ED50 (mice) | Ki (adenosine A2 receptor) | ED50 (mice; [1]) |
| --- | --- | --- | --- | --- | --- | --- | --- |
| – | – | – | OC[C@H]1O[C@@H](n2cnc3c(NC4CCCC4)nc(Cl)nc32)[C@H](O)[C@@H]1O [2-chloro-N-cyclopentyladenosine] | most selective for the A1 receptor over the A2 receptor | – | – | – |
| – | – | – | OC[C@H]1O[C@@H](n2cnc3c(NC4CCCC4)ncnc32)[C@H](O)[C@@H]1O [CPA, N-(cyclopentyl)adenosine, reference compound] | – | 0.2 mg/kg | 173 nM | – |
| 691 nM | 4 nM | 173 | OC[C@H]1O[C@@H](n2cnc3c(NN4CCCCC4)nc(Cl)nc32)[C@H](O)[C@@H]1O [Example 5, 2-Chloro-N-(1-piperidinyl)adenosine] | – | – | – | 0.1 mg/kg |
| 1140 nM | 4 nM | 289 | OC[C@H]1O[C@@H](n2cnc3c(NN4CCCCC4)nc(F)nc32)[C@H](O)[C@@H]1O [Example 9, 2-Fluoro-N-(1-piperidinyl)adenosine] | – | – | – | 0.7 mg/kg |
| 1730 nM | 11 nM | 158 | OC[C@H]1O[C@@H](n2cnc3c(NN4CCCC(Oc5ccccc5)C4)nc(Cl)nc32)[C@H](O)[C@@H]1O (stereo partly shown) [Example 16, 2-Chloro-N-(3-phenoxy-1-piperidinyl)adenosine] | – | – | – | 1 mg/kg |
| 1200 nM | – | 857 | OC[C@H]1O[C@@H](n2cnc3c(NN4CCC(Oc5ccccc5)CC4)nc(Cl)nc32)[C@H](O)[C@@H]1O [Example 17, 2-Chloro-N-[4-phenoxy-1-piperidinyl]adenosine] | – | – | – | 0.9 mg/kg |
| – | – | – | CC(Cc1ccccc1)Nc1ncnc2c1ncn2[C@@H]1O[C@H](CO)[C@@H](O)[C@H]1O (stereo partly drawn) [L-PIA, N-(1-phenyl-2-propyl)adenosine, reference compound] | – | 0.1 mg/kg | – | – |
